From ChEMBL document CHEMBL1201862, “PubChem BioAssay data set” (2004)
Where “and” joins values, the source holds several entries; their conditions need not be identical. Equal values may be shown once. Calls of active or inactive are those of the source.

Tests used:
[1] = target: T1, Voltage-gated N-type calcium channel alpha-1B subunit/Amyloid beta A4 precursor protein-binding family A member 1 (Homo sapiens, UniProt Q00975+Q02410); format: protein assay
[2] = target: Large T antigen (Simian virus 40, UniProt P03070); format: functional, Betapolyomavirus macacae;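 also: Confirmatory-stage PubChem screen for compounds that inhibit SV40 T antigen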
[3] = target: T1, Voltage-gated N-type calcium channel alpha-1B subunit/Amyloid beta A4 precursor protein-binding family A member 1; format: protein assay; remark: listed apart in the source
[4] = growth suppression of PTEN-null colon cells, dose response, cell-based, HCT116 PTEN knockout (AID 1047); format: functional;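 also: HCT116 colon tumor cells with PTEN knocked out; cells exposed to compound for 60 hours before readout; potency for loss of cell viability measured by luminescence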
[5] = growth suppression of beta-catenin-knockout colon cells, dose response, cell-based, HCT116, human colon tumor (AID 1045); format: functional;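 also: HCT116 colon tumor cells with beta catenin knocked out; cells exposed to compound for 60 hours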
[6] = target: T2, Short transient receptor potential channel 4 (Mus musculus, UniProt Q9QUQ5); test: mouse TRPC4 channel inhibitors, dose response, cell-based, HEK293 TRPC4/mu-opioid, Fluo-4 calcium (AID 434942); format: functional;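 also: potency of inhibitors blocking the TRPC4 calcium response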
T2 sequence (Q9QUQ5 whole entry): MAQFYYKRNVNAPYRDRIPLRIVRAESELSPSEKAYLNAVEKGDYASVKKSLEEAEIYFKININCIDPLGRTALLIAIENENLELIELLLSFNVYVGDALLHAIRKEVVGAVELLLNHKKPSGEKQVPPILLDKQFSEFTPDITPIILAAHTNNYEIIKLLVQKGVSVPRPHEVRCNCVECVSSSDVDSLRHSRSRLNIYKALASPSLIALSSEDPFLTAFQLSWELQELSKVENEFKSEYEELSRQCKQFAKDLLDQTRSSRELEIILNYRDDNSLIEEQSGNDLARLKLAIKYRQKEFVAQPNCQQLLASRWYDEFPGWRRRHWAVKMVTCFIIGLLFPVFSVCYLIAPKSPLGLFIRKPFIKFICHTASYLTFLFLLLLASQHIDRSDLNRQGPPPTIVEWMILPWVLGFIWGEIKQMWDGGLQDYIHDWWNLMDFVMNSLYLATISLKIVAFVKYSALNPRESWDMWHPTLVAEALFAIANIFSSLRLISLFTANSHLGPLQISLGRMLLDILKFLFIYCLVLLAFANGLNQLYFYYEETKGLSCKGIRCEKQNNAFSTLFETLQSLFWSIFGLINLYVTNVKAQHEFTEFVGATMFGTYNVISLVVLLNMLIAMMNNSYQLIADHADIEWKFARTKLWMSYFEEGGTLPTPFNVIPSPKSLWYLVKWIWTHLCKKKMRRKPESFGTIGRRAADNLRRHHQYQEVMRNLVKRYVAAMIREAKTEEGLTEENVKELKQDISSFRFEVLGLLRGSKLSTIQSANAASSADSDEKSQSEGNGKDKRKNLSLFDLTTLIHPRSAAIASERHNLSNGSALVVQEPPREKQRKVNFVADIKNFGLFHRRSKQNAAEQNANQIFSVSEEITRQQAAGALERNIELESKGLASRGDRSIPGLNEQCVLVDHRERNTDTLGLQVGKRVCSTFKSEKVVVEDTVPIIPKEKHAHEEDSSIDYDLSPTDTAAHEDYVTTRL

[7] = target: Alkaline phosphatase, placental type (Homo sapiens, UniProt P05187); test: PLAP enzyme inhibitors, confirmation, biochemical, luminescence (AID 1512); format: functional
[8] = target: T3, Alkaline phosphatase, tissue-nonspecific isozyme (Homo sapiens, UniProt P05186); test: human TNAP enzyme inhibitors, SAR follow-up, biochemical, luminescent, dose response (AID 1056)
T3 sequence (P05186 whole entry): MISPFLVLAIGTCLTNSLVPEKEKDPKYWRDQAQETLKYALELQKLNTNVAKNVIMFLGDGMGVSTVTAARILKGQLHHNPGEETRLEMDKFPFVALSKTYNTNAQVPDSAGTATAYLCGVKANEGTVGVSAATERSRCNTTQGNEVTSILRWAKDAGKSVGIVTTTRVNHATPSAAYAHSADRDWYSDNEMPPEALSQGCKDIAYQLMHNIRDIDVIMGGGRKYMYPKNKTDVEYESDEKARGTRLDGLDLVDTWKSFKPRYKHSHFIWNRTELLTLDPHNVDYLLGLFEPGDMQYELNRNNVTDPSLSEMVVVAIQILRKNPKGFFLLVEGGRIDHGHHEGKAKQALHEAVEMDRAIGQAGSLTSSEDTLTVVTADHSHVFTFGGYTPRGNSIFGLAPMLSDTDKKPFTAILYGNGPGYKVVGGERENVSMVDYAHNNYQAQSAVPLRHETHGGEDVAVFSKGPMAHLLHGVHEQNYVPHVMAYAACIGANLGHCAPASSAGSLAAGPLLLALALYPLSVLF

[9] = tested on: HEK293; test: NOD1 signaling inhibitors, primary screen, cell-based, luminescence, uHTS (AID 1578); format: functional; conditions: Homo sapiens
[10] = tested on: HEK293; test: cells; format: functional, cell-based; conditions: Homo sapiens
[11] = tested on: HEK293; test: cells; format: functional, cell-based; conditions: Homo sapiens; remark: listed apart in the source
[12] = target: Nucleotide-binding oligomerization domain-containing protein 2 (Homo sapiens, UniProt Q9HC29); test: NOD2 signaling inhibitors, cell-based, luminescence, uHTS, HEK293 (AID 1566); format: functional
[13] = tested on: HEK293; test: NOD2 signaling inhibitors in MDP-stimulated cells, cell-based, uHTS, luminescence (AID 2001); format: functional; conditions: Homo sapiens
[14] = tested on: HEK293; test: cells; format: functional, cell-based; conditions: Homo sapiens; remark: listed apart in the source
[15] = target: T4, Heat shock factor protein 1 (Mus musculus, UniProt P38532); test: HSF1 potentiators in luciferase reporter cells, confirmation, cell-based, NIH3T3, luminescence, dose retest (AID 435004); format: functional;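 also: stress induced by proteasome inhibitor MG132 added 30 min after compound; luciferase reporter driven by HSF1 response element in NIH3T3 cells; actives raise luminescence as potentiators of the MG132 stress response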
T4 sequence (P38532 whole entry): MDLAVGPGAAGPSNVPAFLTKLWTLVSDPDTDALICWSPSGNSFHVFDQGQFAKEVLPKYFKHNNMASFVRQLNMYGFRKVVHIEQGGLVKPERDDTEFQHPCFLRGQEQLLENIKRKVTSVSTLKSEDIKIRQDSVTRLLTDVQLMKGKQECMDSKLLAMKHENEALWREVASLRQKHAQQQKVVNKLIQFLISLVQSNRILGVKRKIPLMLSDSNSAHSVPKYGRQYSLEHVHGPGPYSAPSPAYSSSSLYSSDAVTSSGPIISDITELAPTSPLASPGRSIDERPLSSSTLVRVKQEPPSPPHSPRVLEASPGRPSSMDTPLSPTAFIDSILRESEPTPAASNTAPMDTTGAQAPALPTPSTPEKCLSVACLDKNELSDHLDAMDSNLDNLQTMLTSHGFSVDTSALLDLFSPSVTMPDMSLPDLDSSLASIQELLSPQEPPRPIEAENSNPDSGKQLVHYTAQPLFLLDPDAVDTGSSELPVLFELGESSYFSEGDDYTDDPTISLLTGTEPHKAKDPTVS

[16] = target: T5, Microphthalmia-associated transcription factor (Homo sapiens, UniProt O75030); test: TRPM1 promoter luciferase signal decrease, dose response, MITF inhibitor project, cell-based, SK-MEL-5, cherry-picked, set 3 (AID 493073); format: functional
T5 sequence (O75030 whole entry): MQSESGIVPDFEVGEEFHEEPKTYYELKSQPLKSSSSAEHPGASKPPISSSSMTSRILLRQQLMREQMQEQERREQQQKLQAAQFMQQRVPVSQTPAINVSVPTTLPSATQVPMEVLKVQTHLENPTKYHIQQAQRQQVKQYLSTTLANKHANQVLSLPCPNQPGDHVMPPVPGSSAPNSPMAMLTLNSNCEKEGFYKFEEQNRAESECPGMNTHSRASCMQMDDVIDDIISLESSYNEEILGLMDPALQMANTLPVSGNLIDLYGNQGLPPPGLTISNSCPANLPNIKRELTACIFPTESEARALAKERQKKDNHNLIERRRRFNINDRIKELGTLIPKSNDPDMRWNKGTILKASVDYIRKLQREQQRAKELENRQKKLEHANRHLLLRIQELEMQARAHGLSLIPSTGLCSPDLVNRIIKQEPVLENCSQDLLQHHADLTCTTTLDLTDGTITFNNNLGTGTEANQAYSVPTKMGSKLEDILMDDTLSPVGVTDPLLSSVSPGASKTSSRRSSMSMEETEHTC

[17] = target: T6, Replicative DNA helicase DnaB (Mycobacterium tuberculosis, UniProt P9WMR3); test: DnaB intein splicing inhibitors, dose response, biochemical, cell-free fluorescence (AID 449749); format: functional
T6 sequence (P9WMR3 whole entry): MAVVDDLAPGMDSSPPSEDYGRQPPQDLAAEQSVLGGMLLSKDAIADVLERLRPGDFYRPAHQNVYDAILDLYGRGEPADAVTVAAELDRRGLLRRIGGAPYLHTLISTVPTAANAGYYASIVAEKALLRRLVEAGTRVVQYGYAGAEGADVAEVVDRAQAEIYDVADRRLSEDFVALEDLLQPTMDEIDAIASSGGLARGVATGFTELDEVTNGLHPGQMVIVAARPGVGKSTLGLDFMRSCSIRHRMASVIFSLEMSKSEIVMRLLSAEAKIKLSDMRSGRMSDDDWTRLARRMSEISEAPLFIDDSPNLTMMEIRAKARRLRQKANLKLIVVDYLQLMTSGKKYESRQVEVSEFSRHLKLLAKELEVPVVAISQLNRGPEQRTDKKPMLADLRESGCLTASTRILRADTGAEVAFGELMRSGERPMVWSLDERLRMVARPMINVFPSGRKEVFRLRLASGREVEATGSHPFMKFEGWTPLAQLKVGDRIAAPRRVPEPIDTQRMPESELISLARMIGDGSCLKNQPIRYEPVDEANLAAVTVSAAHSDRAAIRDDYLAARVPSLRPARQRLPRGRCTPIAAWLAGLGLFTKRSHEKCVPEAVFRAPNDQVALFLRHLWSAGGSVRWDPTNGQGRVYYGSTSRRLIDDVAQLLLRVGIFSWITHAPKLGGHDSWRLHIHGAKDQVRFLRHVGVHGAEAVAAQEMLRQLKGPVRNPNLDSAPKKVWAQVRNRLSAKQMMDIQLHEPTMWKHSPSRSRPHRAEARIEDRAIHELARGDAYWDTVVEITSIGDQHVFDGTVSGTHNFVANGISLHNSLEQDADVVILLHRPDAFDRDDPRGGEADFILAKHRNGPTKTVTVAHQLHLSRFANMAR

[18] = target: T7, Protein RecA (Mycobacterium tuberculosis, UniProt P9WHJ3); test: Fluorescence Cell-Free Homogeneous Dose Retest to Identify Inhibitors of RecA-Intein Splicing Activity. [Related pubchem assays (depositor defined):AID2097, AID2223, AID489010, AID492950]; format: functional
T7 sequence (P9WHJ3 whole entry): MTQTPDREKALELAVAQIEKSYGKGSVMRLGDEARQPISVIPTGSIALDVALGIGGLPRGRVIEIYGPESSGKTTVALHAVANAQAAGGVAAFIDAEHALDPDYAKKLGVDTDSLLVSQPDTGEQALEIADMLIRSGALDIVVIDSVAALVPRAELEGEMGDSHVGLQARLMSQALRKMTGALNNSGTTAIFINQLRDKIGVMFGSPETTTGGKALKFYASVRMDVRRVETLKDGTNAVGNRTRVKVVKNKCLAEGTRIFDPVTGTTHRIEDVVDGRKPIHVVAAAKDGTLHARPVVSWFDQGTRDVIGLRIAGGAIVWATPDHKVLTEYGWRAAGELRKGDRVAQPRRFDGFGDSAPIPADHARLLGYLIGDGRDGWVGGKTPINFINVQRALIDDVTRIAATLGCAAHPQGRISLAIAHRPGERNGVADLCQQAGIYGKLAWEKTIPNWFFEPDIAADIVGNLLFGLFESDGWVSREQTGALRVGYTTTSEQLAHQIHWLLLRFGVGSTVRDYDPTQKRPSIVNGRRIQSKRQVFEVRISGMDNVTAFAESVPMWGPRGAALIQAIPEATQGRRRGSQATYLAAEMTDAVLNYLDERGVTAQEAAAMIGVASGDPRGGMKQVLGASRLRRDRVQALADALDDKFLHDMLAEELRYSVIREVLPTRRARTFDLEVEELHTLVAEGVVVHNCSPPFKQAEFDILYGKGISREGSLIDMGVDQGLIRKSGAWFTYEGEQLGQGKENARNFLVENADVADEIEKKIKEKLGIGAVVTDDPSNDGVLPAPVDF

[19] = cytotoxicity in HPDE-C7 cells, cell-based, fluorescence, HTS (AID 430); format: functional; conditions: Homo sapiens
[20] = cytotoxicity in KRAS-transformed pancreatic duct cells, primary screen, cell-based, fluorescence, HTS (AID 431); format: functional; conditions: Homo sapiens;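 also: cell line used: HPDE-C7K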
[21] = target: Glyceraldehyde-3-phosphate dehydrogenase (Homo sapiens, UniProt P04406)
Sequence of Glyceraldehyde-3-phosphate dehydrogenase (P04406 whole entry): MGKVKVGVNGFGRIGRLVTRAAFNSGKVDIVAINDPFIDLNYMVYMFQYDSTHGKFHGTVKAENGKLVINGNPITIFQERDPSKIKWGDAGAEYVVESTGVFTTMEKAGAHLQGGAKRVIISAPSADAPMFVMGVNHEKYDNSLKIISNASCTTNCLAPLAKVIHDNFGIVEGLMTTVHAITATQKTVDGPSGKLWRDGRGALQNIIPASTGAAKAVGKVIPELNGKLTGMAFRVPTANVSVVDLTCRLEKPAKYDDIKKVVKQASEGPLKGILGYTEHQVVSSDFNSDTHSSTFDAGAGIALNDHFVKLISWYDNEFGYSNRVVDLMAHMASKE

Sequence of Alkaline phosphatase, placental type (P05187 whole entry): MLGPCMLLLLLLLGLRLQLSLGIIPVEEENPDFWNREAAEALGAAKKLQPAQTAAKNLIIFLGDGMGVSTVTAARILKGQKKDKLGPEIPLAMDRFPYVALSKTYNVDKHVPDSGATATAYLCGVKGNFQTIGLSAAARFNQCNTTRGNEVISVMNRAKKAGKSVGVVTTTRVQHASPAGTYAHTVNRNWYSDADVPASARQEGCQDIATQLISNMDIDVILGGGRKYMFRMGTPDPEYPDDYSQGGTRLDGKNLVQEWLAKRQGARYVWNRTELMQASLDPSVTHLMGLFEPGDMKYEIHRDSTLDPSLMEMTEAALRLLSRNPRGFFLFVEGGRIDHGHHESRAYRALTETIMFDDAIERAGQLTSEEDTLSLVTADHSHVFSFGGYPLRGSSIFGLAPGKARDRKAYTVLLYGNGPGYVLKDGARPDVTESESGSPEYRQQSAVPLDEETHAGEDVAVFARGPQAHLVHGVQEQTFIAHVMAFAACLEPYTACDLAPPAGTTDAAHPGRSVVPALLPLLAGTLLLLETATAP
T1 sequence (Q00975 whole entry): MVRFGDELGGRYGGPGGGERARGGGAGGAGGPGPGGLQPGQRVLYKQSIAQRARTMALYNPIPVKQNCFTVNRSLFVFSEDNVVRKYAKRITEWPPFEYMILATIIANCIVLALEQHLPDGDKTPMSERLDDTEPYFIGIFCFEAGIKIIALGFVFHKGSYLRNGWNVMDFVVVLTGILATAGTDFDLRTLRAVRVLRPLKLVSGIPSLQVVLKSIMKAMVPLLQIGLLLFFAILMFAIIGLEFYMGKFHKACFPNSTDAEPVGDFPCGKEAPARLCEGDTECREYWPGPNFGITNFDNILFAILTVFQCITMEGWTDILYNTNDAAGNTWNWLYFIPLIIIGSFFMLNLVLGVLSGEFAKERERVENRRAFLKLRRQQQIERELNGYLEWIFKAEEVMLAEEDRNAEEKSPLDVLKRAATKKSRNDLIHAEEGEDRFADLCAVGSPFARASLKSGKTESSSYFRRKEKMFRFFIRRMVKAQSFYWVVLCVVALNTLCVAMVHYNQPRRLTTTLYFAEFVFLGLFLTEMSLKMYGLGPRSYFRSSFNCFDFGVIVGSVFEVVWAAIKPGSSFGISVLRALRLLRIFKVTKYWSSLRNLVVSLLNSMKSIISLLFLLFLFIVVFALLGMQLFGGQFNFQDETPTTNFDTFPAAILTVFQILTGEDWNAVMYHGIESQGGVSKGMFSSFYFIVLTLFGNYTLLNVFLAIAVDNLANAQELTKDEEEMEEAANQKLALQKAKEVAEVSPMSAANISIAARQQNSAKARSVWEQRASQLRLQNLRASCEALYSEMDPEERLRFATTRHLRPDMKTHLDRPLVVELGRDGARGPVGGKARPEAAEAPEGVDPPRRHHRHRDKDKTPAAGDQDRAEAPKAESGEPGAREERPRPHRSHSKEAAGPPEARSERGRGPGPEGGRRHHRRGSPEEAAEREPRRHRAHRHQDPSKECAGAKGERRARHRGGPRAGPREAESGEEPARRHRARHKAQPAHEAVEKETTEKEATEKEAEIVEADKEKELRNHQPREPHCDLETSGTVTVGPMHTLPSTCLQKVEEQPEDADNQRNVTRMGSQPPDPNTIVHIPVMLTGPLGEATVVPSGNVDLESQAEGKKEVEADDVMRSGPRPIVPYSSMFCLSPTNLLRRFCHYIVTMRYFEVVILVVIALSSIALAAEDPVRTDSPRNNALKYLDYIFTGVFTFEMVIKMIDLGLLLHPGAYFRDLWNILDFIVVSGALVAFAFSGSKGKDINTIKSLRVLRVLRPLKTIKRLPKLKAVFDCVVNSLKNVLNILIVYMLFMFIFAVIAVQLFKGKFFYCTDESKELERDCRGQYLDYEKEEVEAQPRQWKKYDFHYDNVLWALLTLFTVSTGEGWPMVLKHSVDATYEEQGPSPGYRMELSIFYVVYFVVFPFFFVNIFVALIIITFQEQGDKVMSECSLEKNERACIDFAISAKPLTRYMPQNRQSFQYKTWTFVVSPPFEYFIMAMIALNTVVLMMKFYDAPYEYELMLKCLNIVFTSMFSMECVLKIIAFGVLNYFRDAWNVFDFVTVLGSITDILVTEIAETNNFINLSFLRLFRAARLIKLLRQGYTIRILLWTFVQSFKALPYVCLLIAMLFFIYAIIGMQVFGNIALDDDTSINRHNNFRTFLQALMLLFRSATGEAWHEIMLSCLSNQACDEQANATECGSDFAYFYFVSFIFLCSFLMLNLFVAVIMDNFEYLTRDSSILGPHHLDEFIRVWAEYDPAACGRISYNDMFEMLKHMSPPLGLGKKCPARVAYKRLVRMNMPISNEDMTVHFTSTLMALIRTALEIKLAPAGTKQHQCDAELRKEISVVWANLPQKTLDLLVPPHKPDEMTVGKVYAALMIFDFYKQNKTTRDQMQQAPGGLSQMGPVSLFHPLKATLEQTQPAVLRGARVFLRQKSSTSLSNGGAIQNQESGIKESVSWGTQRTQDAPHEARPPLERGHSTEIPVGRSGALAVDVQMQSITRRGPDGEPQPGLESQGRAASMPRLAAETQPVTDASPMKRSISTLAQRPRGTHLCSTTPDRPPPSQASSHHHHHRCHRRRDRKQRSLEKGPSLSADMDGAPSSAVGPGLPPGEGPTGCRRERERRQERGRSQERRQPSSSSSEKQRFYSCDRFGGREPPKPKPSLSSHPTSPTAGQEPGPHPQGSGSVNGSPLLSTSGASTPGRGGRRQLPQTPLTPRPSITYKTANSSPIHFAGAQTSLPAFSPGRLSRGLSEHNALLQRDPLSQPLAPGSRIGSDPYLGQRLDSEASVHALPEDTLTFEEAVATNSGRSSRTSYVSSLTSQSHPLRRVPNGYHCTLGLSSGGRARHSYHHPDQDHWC
T1 sequence (Q02410 whole entry): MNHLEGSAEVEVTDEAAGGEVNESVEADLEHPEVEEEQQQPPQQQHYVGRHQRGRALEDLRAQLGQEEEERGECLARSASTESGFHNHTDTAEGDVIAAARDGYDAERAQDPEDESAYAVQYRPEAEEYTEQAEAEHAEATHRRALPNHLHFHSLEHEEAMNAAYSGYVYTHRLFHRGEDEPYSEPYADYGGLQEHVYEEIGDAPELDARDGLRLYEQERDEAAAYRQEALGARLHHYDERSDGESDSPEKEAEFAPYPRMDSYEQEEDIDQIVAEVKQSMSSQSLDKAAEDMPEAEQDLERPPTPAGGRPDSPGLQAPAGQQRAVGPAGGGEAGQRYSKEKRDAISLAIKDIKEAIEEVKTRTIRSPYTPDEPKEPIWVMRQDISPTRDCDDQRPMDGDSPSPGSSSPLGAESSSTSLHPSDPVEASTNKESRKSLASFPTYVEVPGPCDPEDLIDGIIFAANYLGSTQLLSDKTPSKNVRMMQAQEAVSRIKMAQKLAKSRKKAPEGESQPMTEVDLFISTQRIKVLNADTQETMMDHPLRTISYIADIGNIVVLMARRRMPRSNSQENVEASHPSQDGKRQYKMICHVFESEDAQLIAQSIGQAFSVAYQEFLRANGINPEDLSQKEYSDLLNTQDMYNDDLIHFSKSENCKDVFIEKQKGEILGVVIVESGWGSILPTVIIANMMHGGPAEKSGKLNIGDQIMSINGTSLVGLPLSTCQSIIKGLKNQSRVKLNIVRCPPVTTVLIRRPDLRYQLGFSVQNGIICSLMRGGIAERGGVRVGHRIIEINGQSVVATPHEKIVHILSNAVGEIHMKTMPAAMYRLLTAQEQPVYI
Sequence of Nucleotide-binding oligomerization domain-containing protein 2 (Q9HC29 whole entry, the tested form may be a part): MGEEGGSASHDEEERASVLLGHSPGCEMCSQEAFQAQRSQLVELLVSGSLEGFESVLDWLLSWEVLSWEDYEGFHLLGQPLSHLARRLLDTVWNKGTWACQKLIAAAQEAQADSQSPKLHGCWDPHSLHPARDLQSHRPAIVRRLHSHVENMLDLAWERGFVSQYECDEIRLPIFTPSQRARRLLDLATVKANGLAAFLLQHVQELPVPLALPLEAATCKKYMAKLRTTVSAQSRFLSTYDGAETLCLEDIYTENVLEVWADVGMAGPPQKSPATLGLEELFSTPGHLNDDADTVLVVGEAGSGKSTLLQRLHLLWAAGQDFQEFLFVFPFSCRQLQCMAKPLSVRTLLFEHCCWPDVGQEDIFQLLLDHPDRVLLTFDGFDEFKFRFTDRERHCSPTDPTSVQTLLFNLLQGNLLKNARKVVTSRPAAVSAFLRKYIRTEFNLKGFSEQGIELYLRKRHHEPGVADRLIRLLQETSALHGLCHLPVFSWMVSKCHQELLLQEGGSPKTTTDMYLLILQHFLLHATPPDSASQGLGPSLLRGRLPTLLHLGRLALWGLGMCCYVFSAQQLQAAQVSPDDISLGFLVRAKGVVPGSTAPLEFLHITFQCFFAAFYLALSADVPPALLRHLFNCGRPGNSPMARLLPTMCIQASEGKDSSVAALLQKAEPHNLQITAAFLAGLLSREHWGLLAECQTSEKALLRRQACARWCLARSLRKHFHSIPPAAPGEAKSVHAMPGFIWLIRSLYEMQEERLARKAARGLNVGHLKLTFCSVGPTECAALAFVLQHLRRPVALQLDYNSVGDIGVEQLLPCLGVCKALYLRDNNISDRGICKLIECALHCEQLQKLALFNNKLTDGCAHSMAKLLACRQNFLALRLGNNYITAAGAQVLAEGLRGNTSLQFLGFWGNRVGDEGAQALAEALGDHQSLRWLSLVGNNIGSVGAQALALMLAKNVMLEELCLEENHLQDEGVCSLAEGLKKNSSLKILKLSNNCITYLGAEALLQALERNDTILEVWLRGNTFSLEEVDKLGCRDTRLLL

SMILES | IC50 [7] | IC50 [8] | EC50 [9] | IC50 [10] | IC50 [11] | EC50 [12] | IC50 [13] | IC50 [14] | other results
Cc1cc(C)c2c(=O)n(CC(=O)NCCCN3CCN(c4ccccc4F)CC3)sc2n1 | – | – | – | – | – | – | – | – | IC50 [1]: 12.4 µM (active); IC50 [2]: 14.3 µM (active); IC50 [3]: 48.8 µM (active); EC50 [4]: 18 µM (active); EC50 [5]: 17 µM (active); EC50 [6]: 0.0013 µM (active)
O=C(CSc1nnc(-c2ccncc2)n1-c1ccc(Cl)cc1)c1ccc(O)c(O)c1 | 6.63 µM (active) | 38.7 µM (active) | – | – | – | – | – | – | –
Cc1ccc(C2=NN(C(=O)CCl)C(c3cccs3)C2)o1 (centres undefined) | – | – | 8.03 µM (active) | 2.11 µM (active) | > 20 µM (inactive) | 8.81 µM (active) | 4.05 µM (active) | > 20 µM (inactive) | EC50 [15]: 35.7 µM (inconclusive); AC50 [16]: 6.1 µM (active); AC50 [17]: 1.52 µM (active); EC50 [18]: 1.51 µM (active)
Cc1cc(NC(=O)CCS(=O)(=O)c2nc(-c3ccccc3)cc(C(F)(F)F)n2)no1 | – | – | > 20 µM (inactive) | 6.11 µM (active) | > 20 µM (inactive) | > 20 µM (inactive) | 8.24 µM (inactive) | > 20 µM (inactive) | EC50 [19]: 9.01 µM (active); EC50 [20]: > 20 µM (not active)
CCS(=O)(=O)c1nc(NC(C)=O)n[nH]1 | > 100 µM (inactive) | 94.8 µM (active) and > 100 µM (inactive) | – | – | – | – | – | – | IC50 [21]: > 100 µM (not active)
